Results: article PMC12717099, “Peptidoglycan recruitment by a penicillin binding protein” (Nature Communications, 2025)

Experiments:
Type in all cases: binding, Enterococcus faecium
PBP5:PenG complex (1:8) = assay: NMR CSP titration of stem peptides into PenG-saturated PBP5; settings: PBP5:PenG 1:8, then SP titration
Description: Data was processed using Topspin 4.1.4 (Bruker) and analyzed using NMRFAM-SPARKY 1.3 and Poky (build number 20240829)[20],[21]. The sequence-specific backbone assignment of PBP5 is publicly available at BMRBID 51690.
SPs (SP1 to SP7) were titrated into 0.5 mM (^2H,^15N)-labeled and 0.1 mM (^2H,^15N)/^13C ILV labeled PBP5 at molar ratios of 0:1, 5:1, 10:1, 20:1, 40:1, 60:1, and 80:1 (stem peptide/SP:PBP5; molar ratios). 2D [^1H,^15N] TROSY or 2D [^1H,^13C] HMQC spectra were recorded for each titration point. SPs were solubilized in NMR buffer. Chemical shift perturbations (Δδ) between PBP5 and SP bound PBP5 spectra were calculated using Eq. 1,1 Δδppm=ΔδH^2+ΔδX/Y^2 where, X is ^15N or ^13C and Y is the constant i.e., 10 for ^15N and 4 for ^13C.
Residues with significant CSPs were identified by calculating the standard deviation of all CSPs (σ), then excluding any CSPs larger than average+2σ, recalculating σ as a new corrected σ0, and then repetitively removing CSPs above 2σ0 until no additional CSPs can be removed. CSPs above ≥2σ2 was the statistical threshold for ^1H/^15N backbone CSP analysis and ≥2xσ1 for ^1H/^13C methyl ILV data for the interaction of SP1 with PBP5. The same threshold values were used for all other peptides to allow for direct comparison with the SP1/PBP5 interaction. […]

PBP5 = assay: 1D 1H STD NMR of stem peptides with PBP5; settings: for STD % to SP1: normalised to highest SP1:PBP5 value; for STD amplification factor: protein:peptide 1:100, 2 s saturation, 308 K
Source text: (§1) Total saturation time for STD measurements was 2 s.
(§2) Overlapped peaks were completely excluded from the analysis.

PBP5:PenG complex = assay: 1D 1H STD NMR of stem peptides with PBP5:PenG; settings: for STD amplification factor: PenG-saturated PBP5, 2 s saturation
Source text: as §1, §2

D-Lac-L-Ala-D-iGln-L-Lys(D-iAsn) [SP2]
CSPs in presence vs absence of penicillin, in words (PBP5:PenG complex (1:8)): nearly identical | STD amplification factor as fraction of highest SP1:PBP5 value (PBP5; 1H DLacβ): 0.3338 | STD % to SP1 (PBP5; 1H DLacβ): 33.3802% | STD amplification factor (PBP5; 1H DLacβ): 8.982 | STD amplification factor as fraction of highest SP1:PBP5 value (PBP5; 1H DQ2β (first listed)): 0.6658 | STD % to SP1 (PBP5; 1H DQ2β (first listed)): 66.5792% | STD amplification factor (PBP5; 1H DQ2β (first listed)): 17.9154 | STD amplification factor as fraction of highest SP1:PBP5 value (PBP5; 1H DQ2β (second listed)): 0.8494 | STD % to SP1 (PBP5; 1H DQ2β (second listed)): 84.9407% | STD amplification factor (PBP5; 1H DQ2β (second listed)): 22.8562 | STD amplification factor as fraction of highest SP1:PBP5 value (PBP5; 1H DQ2γ): 0.2468 | STD % to SP1 (PBP5; 1H DQ2γ): 24.6819% | STD amplification factor (PBP5; 1H DQ2γ): 6.6415 | STD amplification factor as fraction of highest SP1:PBP5 value (PBP5; 1H K3α): 0.4302 | STD % to SP1 (PBP5; 1H K3α): 43.0201% | STD amplification factor (PBP5; 1H K3α): 11.576 | STD amplification factor as fraction of highest SP1:PBP5 value (PBP5; 1H K3β): 0.9507 | STD % to SP1 (PBP5; 1H K3β): 95.0654% | STD amplification factor (PBP5; 1H K3β): 25.5806 | STD amplification factor as fraction of highest SP1:PBP5 value (PBP5; 1H K3γ): 0.5906 | STD % to SP1 (PBP5; 1H K3γ): 59.0623% | STD amplification factor (PBP5; 1H K3γ): 15.8927 | STD amplification factor as fraction of highest SP1:PBP5 value (PBP5; 1H K3δ): 0.6971 | STD % to SP1 (PBP5; 1H K3δ): 69.7058% | STD amplification factor (PBP5; 1H K3δ): 18.7567 | STD amplification factor as fraction of highest SP1:PBP5 value (PBP5; 1H K3ε): 0.1751 | STD % to SP1 (PBP5; 1H K3ε): 17.5055% | STD amplification factor (PBP5; 1H K3ε): 4.71 | STD amplification factor as fraction of highest SP1:PBP5 value (PBP5; 1H LA1α): 0.3317 | STD % to SP1 (PBP5; 1H LA1α): 33.1655% | STD amplification factor (PBP5; 1H LA1α): 8.924 | STD amplification factor as fraction of highest SP1:PBP5 value (PBP5; 1H LA1β): 0.3463 | STD % to SP1 (PBP5; 1H LA1β): 34.6271% | STD amplification factor (PBP5; 1H LA1β): 9.318 | STD amplification factor as fraction of highest SP1:PBP5 value (PBP5; 1H iNα,DQ2α): 0.2066 | STD % to SP1 (PBP5; 1H iNα,DQ2α): 20.663% | STD amplification factor (PBP5; 1H iNα,DQ2α): 5.56 | STD amplification factor as fraction of highest SP1:PBP5 value (PBP5; 1H iNβ): 0.2856 | STD % to SP1 (PBP5; 1H iNβ): 28.5568% | STD amplification factor (PBP5; 1H iNβ): 7.684 | STD amplification factor, ref to SP1 (fraction) (PBP5:PenG complex; 1H DLacβ): 0.3213 | STD, ref to SP1 (percent) (PBP5:PenG complex; 1H DLacβ): 32.1311 | STD amplification factor (PBP5:PenG complex; 1H DLacβ): 8.646 | STD amplification factor, ref to SP1 (fraction) (PBP5:PenG complex; 1H DQ2β (first listed)): 0.7026 | STD, ref to SP1 (percent) (PBP5:PenG complex; 1H DQ2β (first listed)): 70.2576 | STD amplification factor (PBP5:PenG complex; 1H DQ2β (first listed)): 18.9052 | STD amplification factor, ref to SP1 (fraction) (PBP5:PenG complex; 1H DQ2β (second listed)): 0.9395 | STD, ref to SP1 (percent) (PBP5:PenG complex; 1H DQ2β (second listed)): 93.9523 | STD amplification factor (PBP5:PenG complex; 1H DQ2β (second listed)): 25.2811 | STD amplification factor, ref to SP1 (fraction) (PBP5:PenG complex; 1H DQ2γ): 0.3025 | STD, ref to SP1 (percent) (PBP5:PenG complex; 1H DQ2γ): 30.2481 | STD amplification factor (PBP5:PenG complex; 1H DQ2γ): 8.139 | STD amplification factor, ref to SP1 (fraction) (PBP5:PenG complex; 1H K3α): 0.5268 | STD, ref to SP1 (percent) (PBP5:PenG complex; 1H K3α): 52.6829 | STD amplification factor (PBP5:PenG complex; 1H K3α): 14.1761 | STD amplification factor, ref to SP1 (fraction) (PBP5:PenG complex; 1H K3β): 1.026 | STD, ref to SP1 (percent) (PBP5:PenG complex; 1H K3β): 102.583 | STD amplification factor (PBP5:PenG complex; 1H K3β): 27.6034 | STD amplification factor, ref to SP1 (fraction) (PBP5:PenG complex; 1H K3γ): 0.589 | STD, ref to SP1 (percent) (PBP5:PenG complex; 1H K3γ): 58.9034 | STD amplification factor (PBP5:PenG complex; 1H K3γ): 15.8499 | STD amplification factor, ref to SP1 (fraction) (PBP5:PenG complex; 1H K3δ): 0.6424 | STD, ref to SP1 (percent) (PBP5:PenG complex; 1H K3δ): 64.2392 | STD amplification factor (PBP5:PenG complex; 1H K3δ): 17.2857 | STD amplification factor, ref to SP1 (fraction) (PBP5:PenG complex; 1H K3ε): 0.1756 | STD, ref to SP1 (percent) (PBP5:PenG complex; 1H K3ε): 17.5552 | STD amplification factor (PBP5:PenG complex; 1H K3ε): 4.724 | STD amplification factor, ref to SP1 (fraction) (PBP5:PenG complex; 1H LA1α): 0.4522 | STD, ref to SP1 (percent) (PBP5:PenG complex; 1H LA1α): 45.2214 | STD amplification factor (PBP5:PenG complex; 1H LA1α): 12.1683 | STD amplification factor, ref to SP1 (fraction) (PBP5:PenG complex; 1H LA1β): 0.3642 | STD, ref to SP1 (percent) (PBP5:PenG complex; 1H LA1β): 36.4217 | STD amplification factor (PBP5:PenG complex; 1H LA1β): 9.8 | STD amplification factor, ref to SP1 (fraction) (PBP5:PenG complex; 1H iNα,DQ2α): 0.2492 | STD, ref to SP1 (percent) (PBP5:PenG complex; 1H iNα,DQ2α): 24.9206 | STD amplification factor (PBP5:PenG complex; 1H iNα,DQ2α): 6.706 | STD amplification factor, ref to SP1 (fraction) (PBP5:PenG complex; 1H iNβ): 0.3249 | STD, ref to SP1 (percent) (PBP5:PenG complex; 1H iNβ): 32.4924 | STD amplification factor (PBP5:PenG complex; 1H iNβ): 8.743
